According to US12589101B2, “Cyclodextrin protein drug conjugates” (Regeneron Pharmaceuticals, Inc., priority 2017, dated 2026):
≈ marks a conversion by molar mass, not a printed value. Like-named read-outs stand apart in the source and are kept apart here. Numbered stars: 1 amine (or outer) side, 2 acyl side, 3 side chain; on linkers, the order of the positions; unused ones are H or OH. Square brackets hold non-standard residues; d marks the D form. Peptide text beside a SMILES is read from it. * marks the point of attachment. Dolaproine = CO[C@@H]([C@@H]1CCCN1)[C@@H](C)C(=O)O; Dil = CC[C@H](C)[C@H](NC)[C@@H](CC(=O)O)OC; PABC = O=C(OCc1ccc(N[*:1])cc1)[*:2]; DBCO = C1#Cc2ccccc2N(*)Cc2ccccc21; X1 = C[C@@H](N*)[C@@H](O)c1ccccc1; Cit = NC(=O)NCCC[C@H](N)C(=O)O; PEG4 = NCCOCCOCCOCCOCCC(=O)O; Suc = O=C(CCC(=O)[*:2])[*:1]; NMeV = CN[C@H](C(=O)O)C(C)C

Experiments:
[1] = Solubility of linker-payloads (LC-MS standard curve, saturated solution); assay type: physicochemical; conditions: for solubility at 10 min: thermodynamic from solid
Description: The following test assays the solubility of the linker-payloads with a cyclodextrin moiety and the linker-payloads without a cyclodextrin moiety.
The test compounds were dissolved in DMSO to build a standard curve using LC-MS method A or B. The test sample was dissolved in water and sonicated for 10 minutes, and then centrifuged. The upper clear solution was analyzed using the same method A or B and the solubility was calculated based on its peak area.
Detailed test procedures were as follows: • 1. […] 0.05 mg of compound was suspended in water (1 mL) and sonicated for 10 minutes. After centrifugation, the clear solution above was collected to provide the saturated sample solution. • 3. All the standard solutions A, B, C, D, E and sample solution were analyzed by LCMS (using the same method and same injection volume) to obtain the peak areas. • 4. Calculate the standard curve according to the data of A-D (X=concentration, Y=peak areas). • 5. Calculate to obtain the concentration of saturated sample solution according to the functions obtained above.

Cathepsin B = Cathepsin B (Homo sapiens, UniProt P07858); assay: Cathepsin B cleavage rate of linker-payloads (Example 66); assay type: biochemical; conditions: for CapB (%): pH 5.0, 37° C.
Description: Step 1: Preparation of Cathepsin B buffer: 0.1 M NaOAc/0.01M DTT (pH5.0) Dissolve 8.3 g/L NaOAc, 1.54 g/L DTT in deionized water. Adjust pH to 5.0 with HCl/sodium hydroxide.
Step 2: Test Cleavage Rate
• 1. Prepare 25 μM of testing sample: To a 2-mL-tube was added 0.5 mg of testing sample, followed by the addition of 0.2 mL of DMSO. The solution was added dropwise into 0.8 mL of 0.1 M NaOAc/0.01 M DTT buffer. The obtained mixtures were sonicated for 5 minutes to obtain clear and colorless solutions. The pH value of the solution was around 5 according to pH test strip. • 2. Preheat assay buffer: 0.1 M NaOAc/0.01 M DTT (pH 5.0) • 3. Spiking solutions for test compounds: 25 μM Spiking solutions for test compounds: Add 2 μL of 5 mM stock solution into 398 μL of 0.1 M NaOAc/0.01 M DTT buffer (pH 5.0). • 4. Prepare 0.47 μg/μL Cathepsin B in 50 mM NaOAc/1 mM EDTA (pH 5.0). Put on ice. • 5. Without CA074 samples: Add 4 μL of 0.47 μg/μL Cathepsin B into 196 μL of 25 μM Spiking solutions (from step 2), incubate the tubes at 37° C. • 6. With CA074 samples: Add 4 μL of 0.47 μg/μL Cathepsin B with 4 μL of 10 mM Inhibitor (CA074) into 196 μL of 25 μM Spiking solutions (from step 2), incubate the tubes. • 7. After quenching, shake the plate and centrifuge them at 14000 rpm. • 8. Transfer 50 μL of the supernatant from each well into a 96-well sample plate containing 50 μL of ultra pure water (Millipore, ZMQS50F01) for LC/MS analysis. Step 3: Test reference compounds: • 9. Preheat assay buffer: 100 mM Na/K phosphate, pH 6.0, with 1.33 mM EDTA and 2 mM DTT. • 10. Prepare 0.024 μg/μL Cathepsin B: Add 1 μL of 0.47 μg/μL Cathepsin B stock into 19 μL of assay buffer (from step 11). • 11. Add 2 μL of 0.024 μg/μL Cathepsin B (from step 12) to a opaque 96-well plate. • 12. Add 96 μL of assay buffer to each sample. • 13. Add 2 μL of the 10 mM substrate Z-RR-MNA (200 μM final concentration). • 14. For negative control (With inhibitor), add 2 μL of 10 mM Inhibitor (CA074): Immediately read the samples in a kinetic mode at excitation of 340 nm/emission of 425 nm (Read the plate every 30 Second for 3 min). Step 4: Stability of Cathepsin B in incubation samples: • 15. Take 5 μL of incubation samples into 93 μL of assay buffer (from step 11), and then add 2 μL of 10 mM substrate (Z-RR-MNA). • 16. Incubate the samples at 37° C. for 2 min. • 17. Read the samples at excitation of 340 nm/emission of 425 nm.

[2] = water, aqueous, read-out: Aq. Solubility
[3] = water, water, read-out: Solubility

SMILES	solubility at 10 min [1, 2] [µg/mL]	solubility at 10 min [1, 3] [µg/mL]	CapB (%) (Cathepsin B; Cathepsin B cleavage rate)	solubility at 10 min ([1]; water, Solubility) [µg/mL]	other results
CC[C@H](C)[C@@H]([C@@H](CC(=O)N1CCC[C@H]1[C@H](OC)[C@@H](C)C(=O)N[C@H](C)[C@@H](O)c1ccccc1)OC)N(C)C(=O)[C@@H](NC(=O)[C@H](C(C)C)N(C)C(=O)OCc1ccc(NC(=O)[C@H](CCCNC(N)=O)NC(=O)[C@@H](NC(=O)CCOCCOCCOCCOCCNC(=O)CCC(=O)N2Cc3ccccc3C#Cc3ccccc32)C(C)C)cc1)C(C)C [Ex36] ({DBCO-Suc-PEG4}-V[Cit][PABC][NMeV]V[Dil][Dolaproine]-X1)	< 100	< 100	% % (60< % % ≤70 CapB (%))	–	–
CC[C@H](C)[C@@H]([C@@H](CC(=O)N1CCC[C@H]1[C@H](OC)[C@@H](C)C(=O)N[C@H](C)[C@@H](O)c1ccccc1)OC)N(C)C(=O)[C@@H](NC(=O)[C@H](C(C)C)N(C)C(=O)OCc1ccc(NC(=O)[C@H](CCCNC(N)=O)NC(=O)[C@@H](NC(=O)[C@@H](CCCCNC(=O)COC2CCCCCc3c2nnn3CC2OC3OC4C(CO)OC(OC5C(CO)OC(OC6C(CO)OC(OC7C(CO)OC(OC8C(CO)OC(OC2C(O)C3O)C(O)C8O)C(O)C7O)C(O)C6O)C(O)C5O)C(O)C4O)NC(=O)CCOCCOCCOCCOCCNC(=O)CCC(=O)N2Cc3ccccc3C#Cc3ccccc32)C(C)C)cc1)C(C)C (stereo partly drawn) [Ex41]	140 (≈ 47.5 µM)	250 (≈ 84.8 µM)	% % (70< % % ≤80 CapB (%))	–	–
CC[C@H](C)[C@@H]([C@@H](CC(=O)N1CCC[C@H]1[C@H](OC)[C@@H](C)C(=O)N[C@H](C)[C@@H](O)c1ccccc1)OC)N(C)C(=O)[C@@H](NC(=O)[C@H](C(C)C)N(C)C(=O)OCc1ccc(NC(=O)[C@H](CCCNC(N)=O)NC(=O)[C@@H](NC(=O)[C@@H](CCCCNC(=O)COC2CCCCCc3c2nnn3CC2OC3OC4C(CO)OC(OC5C(CO)OC(OC6C(CO)OC(OC7C(CO)OC(OC8C(CO)OC(OC2C(O)C3O)C(O)C8O)C(O)C7O)C(O)C6O)C(O)C5O)C(O)C4O)NC(=O)CCOCCOCCOCCOCCNC(=O)OC[C@@H]2[C@@H]3CCC#CCC[C@@H]32)C(C)C)cc1)C(C)C (stereo partly drawn) [Ex42]	> 1000	1000 (≈ 352 µM)	% % (60< % % ≤70 CapB (%))	–	–
CCC[C@@H]1O[C@@H]2C[C@H]3[C@@H]4CCC5=CC(=O)C=C[C@]5(C)[C@H]4[C@@H](O)C[C@]3(C)[C@]2(C(=O)COc2ccc(NC(=O)[C@H](C)NC(=O)[C@@H](NC(=O)CCOCCOCCOCCOCCNC(=O)CCC(=O)N3Cc4ccccc4C#Cc4ccccc43)C(C)C)cc2)O1 [Ex45, 1-(4-{2-azatricyclo[10.4.0.0^4,9]hexadeca-1(12),4(9),5,7,13,15-hexaen-10-yn-2-yl}-4-oxobutanamido)-N-[(1S)-1-{[(1S)-1-[(4-{2-[(1S,2S,4R,6R,8S,9S,11 S,12S,13R)-11-hydroxy-9,13-dimethyl-16-oxo-6-propyl-5,7-dioxapentacyclo[10.8.0.0^2,9.0^4,8.0^13,18]icosa-14,17-dien-8-yl]-2-oxoethoxy}phenyl)carbamoyl]ethyl]carbamoyl}-2-methylpropyl]-3,6,9,12-tetraoxapentadecan-15-amide]	< 100	< 100	% (% ≤50 CapB (%))	–	–
CCC[C@@H]1O[C@@H]2C[C@H]3[C@@H]4CCC5=CC(=O)C=C[C@]5(C)[C@H]4[C@@H](O)C[C@]3(C)[C@]2(C(=O)COc2ccc(NC(=O)[C@H](C)NC(=O)[C@@H](NC(=O)[C@@H](CCCCNC(=O)COC3CCCCCc4c3nnn4CC3OC4OC5C(CO)OC(OC6C(CO)OC(OC7C(CO)OC(OC8C(CO)OC(OC9C(CO)OC(OC3C(O)C4O)C(O)C9O)C(O)C8O)C(O)C7O)C(O)C6O)C(O)C5O)NC(=O)CCOCCOCCOCCOCCNC(=O)CCC(=O)N3Cc4ccccc4C#Cc4ccccc43)C(C)C)cc2)O1 (stereo partly drawn) [Ex47]	< 100	–	% (% ≤50 CapB (%))	–	aqueous solubility (in words) ([1]; water): below detectable levels; Cathepsin B cleavage rate (Cathepsin B): 14%
CC(C)[C@H](NC(=O)[C@@H](CCCCNC(=O)CCOCCOCCOCCOCCNC(=O)COC1CCCCCc2nnn(CC3OC4OC5C(CO)OC(OC6C(CO)OC(OC7C(CO)OC(OC8C(CO)OC(OC9C(CO)OC(OC3C(O)C4O)C(O)C9O)C(O)C8O)C(O)C7O)C(O)C6O)C(O)C5O)c21)NC(=O)CCOCCOCCOCCOCCNC(=O)CCC(=O)N1Cc2ccccc2C#Cc2ccccc21)C(=O)N[C@@H](CCCNC(N)=O)C(=O)Nc1ccc(COC(=O)NCCOc2ccc3c(c2)[C@@]2(C)CCC[C@](C)(C(=O)NC(=O)[C@@]4(C)CCC[C@]5(C)c6cc(O)ccc6CC[C@@H]45)[C@@H]2CC3)cc1 (stereo partly drawn) [Ex50]	–	–	% (% ≤50 CapB (%))	330 (≈ 108 µM)	–
CC(C)[C@H](NC(=O)[C@@H](CCCCNC(=O)CCOCCOCCOCCOCCNC(=O)COC1CCCCCc2nnn(CC3OC4OC5C(CO)OC(OC6C(CO)OC(OC7C(CO)OC(OC8C(CO)OC(OC9C(CO)OC(OC3C(O)C4O)C(O)C9O)C(O)C8O)C(O)C7O)C(O)C6O)C(O)C5O)c21)NC(=O)CCOCCOCCOCCOCCNC(=O)CCC(=O)N1Cc2ccccc2C#Cc2ccccc21)C(=O)N[C@@H](C)C(=O)Nc1ccc2c(c1)[C@@]1(C)CCC[C@](C)(C(=O)NC(=O)[C@@]3(C)CCC[C@]4(C)c5cc(O)ccc5CC[C@@H]34)[C@@H]1CC2 (stereo partly drawn) [Ex53, DIBAC-suc-PEG4-D-Lys(PEG4-COT-CD)-Val-Ala-1d]	–	–	% (50< % ≤60 CapB (%))	180 (≈ 65 µM)	solubility at 10 min ([1]; water, Aq. Solubility (mg/mL)): 330 µg/mL (≈ 119 µM)
CCCC1O[C@@H]2C[C@H]3[C@@H]4C[C@H](F)C5=CC(=O)C=C[C@]5(C)[C@@]4(F)[C@@H](O)C[C@]3(C)[C@]2(C(=O)COc2ccc(NC(=O)OCc3ccc(NC(=O)[C@H](CCCNC(N)=O)NC(=O)[C@@H](NC(=O)CCOCCOCCOCCOCCNC(=O)CCC(=O)N4Cc5ccccc5C#Cc5ccccc54)C(C)C)cc3)cc2)O1 (stereo partly drawn) [Ex61, DIBAC-suc-PEG4-vcPAB-1i]	–	–	% (% ≤50 CapB (%))	< 10	Solubility ([1]; 10 min): 0.01 mg/ mL mg/mL; solubility at 10 min ([1]; water, Aq. Solubility (mg/mL)): 10 µg/mL (≈ 6.68 µM); capB (Cathepsin B; Cathepsin B cleavage rate, Table 8A): <5%
CCCC1O[C@@H]2C[C@H]3[C@@H]4C[C@H](F)C5=CC(=O)C=C[C@]5(C)[C@@]4(F)[C@@H](O)C[C@]3(C)[C@]2(C(=O)COc2ccc(NC(=O)[C@H](C)NC(=O)[C@@H](NC(=O)[C@@H](CCCCNC(=O)COC3CCCCCc4c3nnn4CC3OC4OC5C(CO)OC(OC6C(CO)OC(OC7C(CO)OC(OC8C(CO)OC(OC9C(CO)OC(OC3C(O)C4O)C(O)C9O)C(O)C8O)C(O)C7O)C(O)C6O)C(O)C5O)NC(=O)CCOCCOCCOCCOCCNC(=O)CCC(=O)N3Cc4ccccc4C#Cc4ccccc43)C(C)C)cc2)O1 (stereo partly drawn) [Ex63, DIBAC-suc-PEG4-dLys(COT-CD)-Val-Ala-1i]	–	–	% (% ≤50 CapB (%))	–	–
